Measurements taken from patent US9340577B2, “HLA binding motifs and peptides and their uses” (priority 1992, dated 2016).
No end group written: not given here.

Tests used:
Test in all cases: biochemical
DRB5*0101 = DRB5*0101 (Homo sapiens, UniProt P01903+Q30154)
DRB3*0101 = DRB3*0101 (Homo sapiens, UniProt P01903+P79483); format: binding
DRB1*1101 = DRB1*1101 (Homo sapiens, UniProt P01903+P01911, A100R/A169T/A87E/I96F/K41T/L162R/M171V/P40S/Q125H/Q178H/Q39Y/Q99D/R42S/S66Y/T262R/V115G/W38E)
DRB1*1302 = DRB1*1302 (Homo sapiens, UniProt P01903+P01911, A100E/A169T/K41T/L162R/M171V/P40S/Q125H/Q178H/Q39Y/Q99D/R42S/S66N/T262R/V115G/W38E/Y61H); format: binding
DRB1*0901 = DRB1*0901 (Homo sapiens, UniProt P01903+P01911, A100R/A103E/D57H/D86V/F55Y/F60I/F76Y/I96F/K127E/L162R/M171V/P40D/Q125H/Q99R/R33Q/R42F/S133A/S66N/T210M/V115G/W38K/Y107V/Y59G/Y89S); format: binding
DR7 (DRB1*0701) = DR7 (DRB1*0701) (Homo sapiens, UniProt P01903+P01911, A100R/A102G/A103Q/D57E/D86V/E43K/F76Y/K127E/L162R/M171V/P40G/Q125H/Q99D/R33Q/R42Y/R54Q/S133A/S66F/T210M/V115G/Y107V/Y59L/Y89S); format: binding
DRB1*1201 = DRB1*1201 (Homo sapiens, UniProt P01903+P01911, A100R/A169T/D57E/D86V/F55L/H45Y/K41T/L162R/M171V/P40S/Q125H/Q178H/Q39Y/Q99D/R42G/S66L/T262R/V114A/V67L/W38E/Y59H/Y61H/Y89S); format: binding
DRB1*0802 = DRB1*0802 (Homo sapiens, UniProt P01903+P01911, A100R/A103L/A169T/F76Y/H45Y/I96F/K41T/L162R/M171V/P40S/Q125H/Q178H/Q39Y/Q99D/R218S/R42G/S66Y/V115G/W38E); format: binding
DRB1*1501 = DRB1*1501 (Homo sapiens, UniProt P01903+P01911); format: binding
DR4w4 (DRB1*0401) = DR4w4 (DRB1*0401) (Homo sapiens, UniProt P01903+P01911, A100K/A169T/F76Y/I96L/K127E/L162R/M171V/N62H/P40V/Q125Y/R42H/S133A/S149N/S66Y/V115G/V209L/W38E); format: binding
DRB4*0101 = DRB4*0101 (Homo sapiens, UniProt P01903+P13762, G164S); format: binding
DR1 (DRB1*0101) = DR1 (DRB1*0101) (Homo sapiens, UniProt P01903+P01911, A100R/D57E/F55L/F60I/F76Y/I96L/L162R/M171V/P40L/Q125E/R42F/V115G/Y59C); format: binding
DRB1*0405 = DRB1*0405 (Homo sapiens, UniProt P01903+P01911, A100R/A169T/D86S/F76Y/I96L/K127E/L162R/M171V/N62H/P40V/Q125Y/R42H/S133A/S149N/S66Y/V115G/V209L/W38E); format: binding

DRB1*1101, sequence (P01903 26-254 limits assumed, other chains not shown): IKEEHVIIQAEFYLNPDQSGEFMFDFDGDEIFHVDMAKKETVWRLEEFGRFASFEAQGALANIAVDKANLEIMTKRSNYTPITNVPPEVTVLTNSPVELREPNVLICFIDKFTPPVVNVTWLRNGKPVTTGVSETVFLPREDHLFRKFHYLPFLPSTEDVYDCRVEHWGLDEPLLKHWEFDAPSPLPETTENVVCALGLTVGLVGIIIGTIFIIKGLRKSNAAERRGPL
DRB1*1302, sequence (P01903 26-254 limits assumed, other chains not shown): as above

Compound | IC50 (DRB5*0101; Binding affinity DRB5 *0101) | IC50 (DRB3*0101) | IC50 (DRB1*1101; Binding affinity DRB1 *1101) | IC50 (DRB1*1302) | IC50 (DRB1*0901) | IC50 (DR7 (DRB1*0701)) | IC50 (DRB1*1201) | IC50 (DRB1*0802) | IC50 (DRB1*1501) | IC50 (DR4w4 (DRB1*0401)) | IC50 (DRB4*0101) | IC50 (DRB5*0101; DRB5*0101) | IC50 (DRB1*1101; DRB1*1101) | IC50 (DR1 (DRB1*0101)) | IC50 (DRB1*0405)
LSGLHGQDLFGIWSK [Peptide 68.0040] | > 20 µM | > 20 µM | > 20 µM | > 20 µM | > 20 µM | > 20 µM | 7.89 µM | > 20 µM | > 20 µM | > 20 µM |  |  |  |  | 
CSCC[C@H](NC(=O)CNC(=O)[C@H](CC(C)C)NC(=O)[C@H](CCC(N)=O)NC(=O)[C@@H](NC(=O)[C@H](CC(C)C)NC(=O)[C@H](CCC(N)=O)NC(=O)CNC(=O)[C@@H](N)Cc1ccccc1)[C@@H](C)O)C(=O)N[C@@H](CCC(=O)O)C(=O)N[C@@H](CCC(N)=O)C(=O)N[C@@H](Cc1c[nH]cn1)C(=O)N[C@@H](Cc1ccc(O)cc1)C(=O)N[C@@H](CCC(=O)O)C(=O)N[C@@H](CC(C)C)C(=O)O [Peptide 68.0028] |  | > 20 µM | > 20 µM | > 20 µM | > 20 µM | > 20 µM | 0.653 µM | > 20 µM | > 20 µM |  |  |  |  |  | 
CC(C)C[C@H](NC(=O)CNC(=O)[C@H](CC(N)=O)NC(=O)[C@H](Cc1ccc(O)cc1)NC(=O)[C@@H](NC(=O)[C@H](CC(=O)O)NC(=O)[C@@H](N)CC(C)C)C(C)C)C(=O)N[C@@H](CC(C)C)C(=O)N1CCC[C@H]1C(=O)N1CCC[C@H]1C(=O)N[C@@H](Cc1ccc(O)cc1)C(=O)N[C@@H](C)C(=O)N[C@@H](CO)C(=O)N[C@@H](CS)C(=O)N[C@@H](Cc1c[nH]cn1)C(=O)O [Peptide 68.0053] | > 20 µM | > 20 µM |  | > 20 µM | > 20 µM | > 20 µM | 9.75 µM |  |  |  | > 20 µM |  |  |  | 
CSCC[C@H](NC(=O)[C@H](CC(=O)O)NC(=O)[C@H](Cc1ccc(O)cc1)NC(=O)[C@H](CC(C)C)NC(=O)[C@@H]1CCCN1C(=O)[C@H](Cc1c[nH]cn1)NC(=O)[C@@H]1CCCN1)C(=O)N[C@@H](CO)C(=O)N[C@@H](CC(C)C)C(=O)N[C@@H](CC(C)C)C(=O)N[C@@H](CCCCN)C(=O)N[C@@H](CC(N)=O)C(=O)N[C@@H](CCCNC(=N)N)C(=O)N[C@@H](Cc1ccccc1)C(=O)N[C@@H](CC(C)C)C(=O)O [Peptide 68.0071] |  | > 20 µM | > 20 µM |  |  |  | 0.487 µM | > 20 µM |  | > 20 µM |  |  |  |  | 
QWVLTAAHCLKKNSQ [Peptide 68.0004] |  | > 20 µM |  | > 20 µM |  |  | > 20 µM | > 20 µM | > 20 µM | > 20 µM |  |  |  |  | 
KSRLQGGVLVNEILN [Peptide 68.0046] | > 20 µM | > 20 µM | > 20 µM |  |  |  | 9.6 µM | > 20 µM | > 20 µM | > 20 µM |  |  |  |  | 
GRAVCGGVLVHPQWV [Peptide 68.0062] |  | > 20 µM | > 20 µM |  |  |  | 16.4 µM | > 20 µM |  | > 20 µM |  |  |  |  | 
CC[C@H](C)[C@H](N)C(=O)N[C@@H](CO)C(=O)N[C@H](C(=O)N[C@H](C(=O)N[C@@H](CC(N)=O)C(=O)N[C@@H](CCC(=O)O)C(=O)N[C@@H](CC(=O)O)C(=O)NCC(=O)N[C@@H](CC(N)=O)C(=O)N[C@@H](CCC(=O)O)C(=O)N[C@H](C(=O)N[C@@H](Cc1ccccc1)C(=O)N[C@@H](CC(N)=O)C(=O)N[C@H](C(=O)N[C@@H](CO)C(=O)O)[C@@H](C)O)[C@@H](C)CC)[C@@H](C)CC)[C@@H](C)CC [Peptide 68.0166] | > 20 µM | 0.035 µM | > 20 µM |  | > 20 µM | > 20 µM | 10.7 µM | > 20 µM | 3.01 µM | > 20 µM | 6.39 µM | > 37.8 µM | > 18.9 µM |  | 
PEEFLRPRSLQCVSL [Peptide 68.0015] | > 20 µM | > 20 µM |  |  |  |  | 6.02 µM |  |  | > 20 µM |  |  |  |  | 
CSCC[C@H](NC(=O)[C@@H](NC(=O)[C@H](CCCCN)NC(=O)[C@@H](NC(=O)[C@H](C)NC(=O)[C@H](CC(=O)O)NC(=O)[C@@H](N)[C@@H](C)O)C(C)C)C(C)C)C(=O)N[C@@H](CC(=O)O)C(=O)N[C@@H](CC(C)C)C(=O)N1CCC[C@H]1C(=O)N[C@H](C(=O)N[C@@H](CCC(N)=O)C(=O)N[C@@H](CCC(=O)O)C(=O)N1CCC[C@H]1C(=O)N[C@@H](C)C(=O)O)[C@@H](C)O [Peptide 68.0074] | > 20 µM | > 20 µM | > 20 µM | > 20 µM | > 20 µM | > 20 µM | > 20 µM | > 20 µM | > 20 µM | > 20 µM |  |  |  | > 20 µM | 
CC(C)C[C@H](NC(=O)CNC(=O)[C@H](CC(N)=O)NC(=O)[C@@H](N)Cc1ccc(O)cc1)C(=O)N[C@@H](CC(C)C)C(=O)N1CCC[C@H]1C(=O)N1CCC[C@H]1C(=O)N[C@@H](Cc1ccc(O)cc1)C(=O)N[C@@H](C)C(=O)N[C@@H](CO)C(=O)N[C@@H](CS)C(=O)N[C@@H](Cc1c[nH]cn1)C(=O)N[C@@H](CC(C)C)C(=O)N[C@H](C(=O)N[C@@H](CCC(=O)O)C(=O)O)[C@@H](C)O [Peptide 68.0054] |  | > 20 µM |  |  |  | > 20 µM | > 20 µM |  |  |  | > 20 µM |  |  |  | 
CC[C@H](C)[C@H](NC(=O)[C@@H]1CCCN1C(=O)[C@H](CCC(N)=O)NC(=O)[C@@H](N)Cc1c[nH]c2ccccc12)C(=O)N1CCC[C@H]1C(=O)N[C@H](C(=O)N[C@@H](Cc1c[nH]cn1)C(=O)N[C@H](C(=O)N[C@H](C(=O)N1CCC[C@H]1C(=O)N[C@@H](CC(C)C)C(=O)N[C@@H](CO)C(=O)N[C@@H](CCC(=O)O)C(=O)N[C@@H](CC(=O)O)C(=O)N[C@@H](CCC(N)=O)C(=O)O)C(C)C)[C@@H](C)O)C(C)C [Peptide 68.0039] | > 20 µM | > 20 µM | > 20 µM |  |  |  | > 20 µM | > 20 µM | > 20 µM | > 20 µM |  |  |  |  | 
CC(C)C[C@H](NC(=O)CNC(=O)[C@H](CC(N)=O)NC(=O)[C@H](Cc1ccc(O)cc1)NC(=O)[C@@H](NC(=O)[C@H](CC(=O)O)NC(=O)[C@H](CC(C)C)NC(=O)[C@H](C)N)C(C)C)C(=O)N[C@@H](CC(C)C)C(=O)N1CCC[C@H]1C(=O)N1CCC[C@H]1C(=O)N[C@@H](Cc1ccc(O)cc1)C(=O)N[C@@H](C)C(=O)N[C@@H](CO)C(=O)N[C@@H](CS)C(=O)O [Peptide 68.0052] | > 20 µM | > 20 µM |  | > 20 µM | > 20 µM | > 20 µM | 7.57 µM |  |  |  | > 20 µM |  |  |  | 
EYILDLHPEPTDLFC [Peptide 1543.51] | > 20 µM | 0.083 µM | 19.5 µM | 4.75 µM | > 20 µM | > 20 µM | 2.6 µM | 16.3 µM | > 20 µM |  | 0.0082 µM |  |  | 0.189 µM | 1.14 µM
GQRVPVSHSFPHPLY [Peptide 68.0005] | > 20 µM | > 20 µM | > 20 µM |  |  |  | 5.51 µM | > 20 µM |  | > 20 µM |  |  |  |  | 
SADDLRAFQQLFLNT [Peptide 1543.07] | > 20 µM | > 20 µM | 3.59 µM | 3.13 µM | 0.559 µM | 0.124 µM | 0.305 µM | 7 µM |  |  | 0.27 µM |  |  | 0.295 µM | 0.411 µM
